Test results from DBAASP.
In brackets after ≈: the same amount, converted by molar mass. Several values for one entry are separate records, joined by “and”; a condition that tells them apart may be missing. Equal values may be shown once.

How the values were obtained:
Test in all cases: ≥ marks a high value that may be exact or a test limit, other limits are often not marked, values filed in µg/mL are converted to µM
[1] = tested on: Escherichia coli ATCC 25922
[2] = tested on: Pseudomonas aeruginosa ATCC 27853
[3] = tested on: Staphylococcus aureus ATCC 25923
[4] = tested on: Staphylococcus aureus ATCC 29213

Compound	MIC [1]	MIC [2] [µM]	MIC [3] [µM]	MIC [4] [µM]
CC(C)C[C@H](NC(=O)[C@H](CCCCN)NC(=O)CNC(=O)[C@@H](N)CO)C(=O)N[C@@H](Cc1ccc(O)cc1)C(=O)N[C@@H](Cc1ccc(O)cc1)C(=O)N[C@@H](CCCN=C(N)N)C(=O)N[C@@H](CCCN=C(N)N)C(=O)N[C@@H](CCCCN)C(=O)N[C@@H](CCCCN)C(N)=O [SGKLYYRRKK]		> 100	> 100	
CC[C@H](C)[C@H](NC(=O)[C@H](CCCN=C(N)N)NC(=O)[C@H](CCCCN)NC(=O)[C@H](CC(C)C)NC(=O)[C@@H](NC(=O)CN)C(C)C)C(=O)N[C@@H](CCCCN)C(=O)N[C@H](C(=O)N[C@@H](CC(C)C)C(=O)N[C@H](C(N)=O)C(C)C)[C@@H](C)O [GVLKRIKTLV]	> 200 µM			
C[C@H](NC(=O)[C@H](Cc1ccccc1)NC(=O)[C@H](CCCCN)NC(=O)[C@H](CCCCN)NC(=O)[C@H](C)NC(=O)[C@@H](N)Cc1ccccc1)C(=O)N[C@@H](CCCCN)C(=O)N[C@@H](CCCCN)C(=O)N[C@@H](Cc1ccccc1)C(=O)N[C@@H](CCCCN)C(N)=O [FAKKFAKKFK]	193 µM (≈ 240 µg/mL)	193 (≈ 240 µg/mL)	193 (≈ 240 µg/mL)	
CC[C@H](C)[C@H](NC(=O)CN)C(=O)NCC(=O)N[C@@H](CCCCN)C(=O)N[C@@H](CC(C)C)C(=O)N[C@@H](Cc1ccccc1)C(=O)N[C@@H](CC(C)C)C(=O)N[C@@H](Cc1cnc[nH]1)C(=O)N[C@@H](C)C(=O)N[C@@H](C)C(=O)N[C@@H](CCCCN)C(=O)N[C@@H](CCCCN)C(=O)N[C@@H](Cc1ccccc1)C(=O)N[C@@H](C)C(=O)N[C@@H](CCCCN)C(=O)N[C@@H](C)C(=O)N[C@@H](Cc1ccccc1)C(=O)N[C@H](C(=O)N[C@@H](C)C(=O)N[C@@H](CCC(=O)O)C(=O)N[C@@H](CCCCN)C(=O)N[C@@H](CCSC)C(=O)N[C@@H](CC(N)=O)C(=O)N[C@@H](CO)C(=O)O)C(C)C [GIGKLFLHAAKKFAKAFVAEKMNS]				38.4 (≈ 100 µg/mL)
CC(C)[C@H](NC(=O)[C@@H]1CCCN1C(=O)[C@@H](N)Cc1ccccc1)C(=O)N[C@H](C(=O)N[C@@H](Cc1c[nH]c2ccccc12)C(=O)N[C@@H](CCCCN)C(=O)N[C@@H](Cc1c[nH]c2ccccc12)C(=O)N[C@@H](Cc1c[nH]c2ccccc12)C(=O)N[C@@H](CCCCN)C(=O)N[C@@H](Cc1c[nH]c2ccccc12)C(=O)N[C@@H](Cc1c[nH]c2ccccc12)C(=O)N[C@@H](CCCCN)C(=O)NCC(N)=O)[C@@H](C)O [FPVTWKWWKWWKG]	5.3 µM and 8 µM		20 (≈ 36.7 µg/mL)	
CC[C@H](C)[C@H](NC(=O)[C@@H](NC(=O)[C@@H]1CCCN1C(=O)CNC(=O)[C@@H](NC(=O)[C@@H](N)Cc1ccccc1)[C@@H](C)CC)[C@@H](C)CC)C(=O)N[C@@H](CO)C(=O)N[C@@H](C)C(=O)N[C@@H](CC(C)C)C(=O)N[C@@H](C)C(=O)N[C@@H](CO)C(=O)N[C@@H](CC(C)C)C(=O)N[C@@H](Cc1ccccc1)C(=O)NCC(N)=O [FIGPIISALASLFG]	> 60 µM		> 60	
CC(C)C[C@H](NC(=O)[C@H](CC(C)C)NC(=O)[C@H](CC(N)=O)NC(=O)[C@H](CCCCN)NC(=O)[C@H](CC(C)C)NC(=O)[C@H](CC(=O)O)NC(=O)[C@@H](N)C(C)C)C(=O)N[C@@H](CCCCN)C(=O)O [VDLKNLLK]		32 (≈ 30.1 µg/mL)		

More lines, in order of falling MIC [1], values ahead:

MIC [1]	MIC [2] [µM]	MIC [3] [µM]	MIC [4] [µM]	Compound
78 µM (≈ 249 µg/mL)				CC[C@H](C)[C@H](NC(=O)[C@@H](NC(=O)[C@@H](NC(=O)CNC(=O)[C@H](C)NC(=O)[C@@H](NC(=O)[C@H](CC(N)=O)NC(=O)[C@@H](NC(=O)[C@H](C)NC(=O)[C@H](CC(C)C)NC(=O)[C@H](CC(N)=O)NC(=O)[C@H](CCCCN)NC(=O)[C@@H](NC(=O)[C@@H](NC(=O)[C@H](CO)NC(=O)[C@H](Cc1ccccc1)NC(=O)[C@H](Cc1ccccc1)NC(=O)CN)[C@@H](C)O)C(C)C)[C@@H](C)O)C(C)C)[C@@H](C)O)C(C)C)C(=O)N[C@@H](CC(=O)O)C(=O)N[C@H](C(=O)N[C@@H](CC(C)C)C(=O)N[C@@H](CCCCN)C(=O)N[C@H]1CSSC[C@@H](C(=O)N[C@@H](CCCN=C(N)N)C(=O)N[C@@H](CO)C(=O)O)NC(=O)CNC(=O)CNC(=O)[C@H]([C@@H](C)O)NC(=O)[C@H](C(C)C)NC(=O)[C@H](CCCCN)NC1=O)[C@@H](C)O [GFFSTVKNLATNVAGTVIDTLKCKVTGGCRS]
28 µM (≈ 80.5 µg/mL)				CC[C@H](C)[C@H](NC(=O)CNC(=O)[C@H](CCSC)NC(=O)[C@H](CCCCN)NC(=O)[C@H](C)NC(=O)[C@H](CC(C)C)NC(=O)[C@H](CCCCN)NC(=O)[C@H](CCC(=O)O)NC(=O)[C@H](CC(C)C)NC(=O)CNC(=O)[C@H](CCCN=C(N)N)NC(=O)[C@H](CC(C)C)NC(=O)[C@@H](NC(=O)[C@H](CO)NC(=O)[C@H](CC(C)C)NC(=O)[C@H](C)N)[C@@H](C)CC)C(=O)N[C@@H](C)C(=O)N[C@@H](CC(C)C)C(=O)N[C@H](C(=O)N[C@@H](CC(N)=O)C(=O)N[C@H]1CSSC[C@@H](C(=O)O)NC(=O)[C@H](CCCCN)NC(=O)[C@H](CCCCN)NC(=O)[C@H]([C@@H](C)O)NC(=O)[C@H](C)NC(=O)[C@H](CCCCN)NC1=O)[C@@H](C)O [ALSILRGLEKLAKMGIALTNCKATKKC]
25 µM (≈ 57 µg/mL)		200 (≈ 456 µg/mL)		CC[C@H](C)[C@H](NC(=O)CNC(=O)[C@H](CCCCN)NC(=O)[C@@H](NC(=O)[C@H](CC(C)C)NC(=O)[C@H](CO)NC(=O)CNC(=O)[C@H](CC(C)C)NC(=O)CNC(=O)[C@H](C)NC(=O)[C@H](CCCCN)NC(=O)[C@H](Cc1ccccc1)NC(=O)[C@@H](NC(=O)[C@H](CC(=O)O)NC(=O)[C@H](CCCCN)NC(=O)[C@H](CC(C)C)NC(=O)CN)[C@@H](C)CC)C(C)C)C(=O)N[C@@H](C)C(=O)N[C@@H](C)C(=O)N[C@@H](Cc1cnc[nH]1)C(=O)N[C@H](C(=O)N[C@@H](C)C(=O)N[C@@H](CC(N)=O)C(N)=O)C(C)C [GLKDIFKAGLGSLVKGIAAHVAN]
15 µM (≈ 31.3 µg/mL)		15 (≈ 31.3 µg/mL)		CC(C)C[C@H](NC(=O)CN)C(=O)N[C@@H](CC(C)C)C(=O)N[C@@H](CC(=O)O)C(=O)N[C@@H](Cc1ccccc1)C(=O)N[C@@H](CC(C)C)C(=O)N[C@@H](CCCCN)C(=O)N[C@@H](C)C(=O)N[C@@H](C)C(=O)NCC(=O)N[C@@H](CCCCN)C(=O)NCC(=O)N[C@@H](CC(C)C)C(=O)N[C@H](C(=O)N[C@@H](CO)C(=O)N[C@@H](CC(N)=O)C(=O)N[C@@H](CC(C)C)C(=O)N[C@@H](CC(C)C)C(=O)N[C@@H](CCC(=O)O)C(=O)N[C@@H](CCCCN)C(N)=O)C(C)C [GLLDFLKAAGKGLVSNLLEK]
10.7 µM (≈ 16 µg/mL)				CC[C@H](C)[C@H](NC(=O)[C@H](Cc1c[nH]c2ccccc12)NC(=O)[C@H](CCCN=C(N)N)NC(=O)[C@H](Cc1c[nH]c2ccccc12)NC(=O)[C@H](Cc1c[nH]c2ccccc12)NC(=O)[C@H](CCCN=C(N)N)NC(=O)[C@H](CCCN=C(N)N)NC(=O)[C@H](Cc1c[nH]c2ccccc12)NC(=O)[C@@H](N)CCCN=C(N)N)C(N)=O [RWRRWWRWI]
5.8 µM (≈ 9.99 µg/mL)	4.35 (≈ 7.5 µg/mL)	2.9 (≈ 5 µg/mL)		CSCC[C@H](NC(=O)[C@H](CCCN=C(N)N)NC(=O)[C@H](Cc1c[nH]c2ccccc12)NC(=O)[C@H](C)NC(=O)[C@H](Cc1c[nH]c2ccccc12)NC(=O)[C@H](CCCN=C(N)N)NC(=O)[C@H](Cc1ccc(O)cc1)NC(=O)[C@H](Cc1c[nH]c2ccccc12)NC(=O)[C@H](CCCN=C(N)N)NC(=O)[C@@H](N)CCCN=C(N)N)C(=O)N[C@@H](CCCN=C(N)N)C(N)=O [RRWYRWAWRMR]
5 µM (≈ 9.02 µg/mL)			> 40	CC(C)C[C@H](NC(=O)[C@H](CCCCN)NC(=O)[C@H](CC(C)C)NC(=O)[C@H](CC(C)C)NC(=O)[C@H](CCCCN)NC(=O)[C@H](CCCCN)NC(=O)[C@@H]1CCCN1C(=O)[C@H](CC(C)C)NC(=O)[C@H](CCCCN)NC(=O)[C@H](CC(C)C)NC(=O)[C@H](CC(C)C)NC(=O)[C@H](CCCCN)NC(=O)[C@H](CCCCN)NC(=O)[C@@H](N)CC(C)C)C(=O)N[C@@H](C)C(=O)NCC(=O)O [LKKLLKLPKKLLKLAG]
4.58 µM (≈ 7.5 µg/mL)	12.2 (≈ 20 µg/mL)	3.05 (≈ 5 µg/mL)		C[C@H](NC(=O)[C@H](Cc1c[nH]c2ccccc12)NC(=O)[C@H](CCCN=C(N)N)NC(=O)[C@H](Cc1c[nH]c2ccccc12)NC(=O)[C@H](C)NC(=O)[C@H](CCCCN)NC(=O)[C@@H](N)Cc1ccc(O)cc1)C(=O)N[C@@H](Cc1c[nH]c2ccccc12)C(=O)N[C@@H](CCCN=C(N)N)C(=O)N[C@@H](Cc1c[nH]c2ccccc12)C(=O)N[C@@H](CCCCN)C(N)=O [YKAWRWAWRWK]
3 µM (≈ 4.92 µg/mL)		25 (≈ 41 µg/mL)		CC(C)C[C@H](NC(=O)[C@H](C)NC(=O)[C@@H](N)CCCCN)C(=O)N[C@@H](Cc1c[nH]c2ccccc12)C(=O)N[C@@H](CCCCN)C(=O)N[C@H](C(=O)N[C@@H](CC(C)C)C(=O)N[C@@H](CC(C)C)C(=O)N[C@@H](CCCCN)C(=O)N[C@@H](CCCCN)C(=O)N[C@H](C(=O)N[C@@H](CC(C)C)C(=O)N[C@@H](CCCCN)C(=O)N[C@@H](C)C(N)=O)C(C)C)[C@@H](C)O [KALWKTLLKKVLKA]
1 µM (≈ 4.9 µg/mL)				CC[C@H](C)[C@H](NC(=O)CNC(=O)[C@H](CC(N)=O)NC(=O)[C@@H](NC(=O)[C@@H](NC(=O)CNC(=O)[C@@H](NC(=O)[C@H](CCCCN)NC(=O)[C@@H](NC(=O)CNC(=O)[C@H](CCCCN)NC(=O)CNC(=O)[C@@H](NC(=O)[C@@H](NC(=O)[C@H](CCCCN)NC(=O)[C@@H]1CCCN1C(=O)[C@H](Cc1ccccc1)NC(=O)[C@@H](NC(=O)CN)[C@@H](C)CC)[C@@H](C)CC)[C@@H](C)CC)[C@@H](C)CC)[C@@H](C)O)[C@@H](C)CC)C(C)C)C(=O)N[C@@H](CCCCN)C(=O)N[C@@H](CO)C(=O)N[C@@H](CC(C)C)C(=O)N[C@H](C(=O)N[C@@H](CCCCN)C(=O)NCC(=O)N[C@H](C(=O)NCC(=O)N[C@@H](CCSC)C(=O)N[C@@H](CCCCN)C(=O)N[C@H](C(=O)N[C@@H](Cc1ccccc1)C(=O)N[C@@H](CCCCN)C(=O)N[C@@H](C)C(=O)NCC(=O)N[C@@H](CC(C)C)C(=O)N[C@@H](CO)C(=O)N[C@@H](CC(N)=O)C(=O)N[C@H](C(=O)NCC(=O)N[C@@H](CC(N)=O)C(=O)N[C@H](C(=O)NCC(=O)N[C@H]1CSSC[C@@H](C(=O)O)NC(=O)[C@H](CCC(=O)O)NC(=O)[C@H](CC(=O)O)NC(=O)[C@H](CCC(=O)O)NC(=O)[C@H](CC(N)=O)NC1=O)[C@@H](C)O)[C@@H](C)CC)C(C)C)C(C)C)C(C)C [GIFPKIIGKGIKTGIVNGIKSLVKGVGMKVFKAGLSNIGNTGCNEDEC]
